Consider 27 compounds from patent US20240182445A1 (ONO PHARMACEUTICAL CO., LTD., priority 2019, published 2024).

The first test concerns the target T1, human TREK-1 (Homo sapiens, UniProt O95069).
T1 construct: expressed in transfected cells
T1 sequence (O95069 1-426): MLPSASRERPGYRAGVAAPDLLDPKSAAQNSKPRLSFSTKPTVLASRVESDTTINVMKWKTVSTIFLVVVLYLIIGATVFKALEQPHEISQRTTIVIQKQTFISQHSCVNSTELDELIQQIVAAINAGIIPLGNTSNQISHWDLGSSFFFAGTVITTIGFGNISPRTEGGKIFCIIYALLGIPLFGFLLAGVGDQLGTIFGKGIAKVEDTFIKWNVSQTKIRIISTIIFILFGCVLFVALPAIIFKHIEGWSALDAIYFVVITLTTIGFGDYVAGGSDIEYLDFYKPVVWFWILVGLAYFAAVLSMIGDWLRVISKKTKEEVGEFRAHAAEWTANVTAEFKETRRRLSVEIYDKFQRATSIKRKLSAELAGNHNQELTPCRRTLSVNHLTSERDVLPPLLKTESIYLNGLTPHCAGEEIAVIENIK
As to the kind of experiment: TREK-1 Thallium (Tl+) flux assay, Method 1. Format: cell-based. As to conditions: TREK-1 Thallium (Tl+) flux assay, Method 1. The method in brief:
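CHO-K1 cells stably expressing human TREK-1, loaded with Thallos dye, received compound or 0.3% DMSO vehicle for 10 min before thallium stimulus buffer. ΔRatio is fluorescence at 25 s after thallium addition over mean pre-addition fluorescence; % inhibition calculated from it.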
The compound `Cc1cc(OCc2ccccc2)ccc1NC(=O)c1c(Cl)cnn1C1CCN(C(=O)CC(C)C)CC1` [Compound 401, N-(4-(benzyloxy)-2-methylphenyl)-4-chloro-1-(1-(3-methylbutanoyl)piperidin-4-yl)-1H-pyrazole-5-carboxamide] displayed an IC50 of 1780 nM.

Still in this test, the particulars now being: TREK-1 Thallium (Tl+) flux assay; no *^12 (Method 2) mark on these rows.
`Cc1cc(C#Cc2ccccc2)cnc1NC(=O)c1c(Cl)cnn1C[C@@H]1COCCO1` [Compound 338, (R)-1-((1,4-dioxan-2-yl)methyl)-4-chloro-N-(3-methyl-5-(phenylethynyl)pyridin-2-yl)-1H-pyrazole-5-carboxamide] yielded an IC50 of 730 nM. Still for that read-out and setting: the same measure for `Cc1cc(C#Cc2ccccc2)cnc1NC(=O)c1c(Cl)cnn1C1CCOC1` (stereo not drawn) [Compound 306, 4-chloro-N-(3-methyl-5-(phenylethynyl)pyridin-2-yl)-1-(tetrahydrofuran-3-yl)-1H-pyrazole-5-carboxamide]: 580 nM; for `CC(C)(C)OC(=O)N1CCN(CCn2ncc(Cl)c2C(=O)Nc2ncc(C#Cc3ccccc3)cc2F)CC1` [Compound 257, tert-butyl 4-(2-(4-chloro-5-((3-fluoro-5-(phenylethynyl)pyridin-2-yl)carbamoyl)-1H-pyrazol-1-yl)ethyl)piperazine-1-carboxylate]: 420 nM; for `O=C(Nc1ncc(C#Cc2ccccc2)cc1F)c1c(Cl)cnn1CC1CCOC1` (stereo not drawn) [Compound 217, 4-chloro-N-(3-fluoro-5-(phenylethynyl)pyridin-2-yl)-1-((tetrahydrofuran-3-yl)methyl)-1H-pyrazole-5-carboxamide]: 340 nM. In the case of `Cc1cc(C#Cc2ccc(F)cc2)cnc1NC(=O)c1c(Cl)cnn1CC1CCN(C(=O)C(C)C)CC1C` (stereo not drawn) [Compound 284, 4-chloro-N-(5-((4-fluorophenyl)ethynyl)-3-methylpyridin-2-yl)-1-((1-isobutyryl-3-methylpiperidin-4-yl)methyl)-1H-pyrazole-5-carboxamide], the IC50 came to 490 nM.

In turn, `Cc1cc(C#Cc2ccccc2)cnc1NC(=O)c1c(Cl)cnn1C[C@H]1C[C@@H]2CC[C@H]1O2` (racemic) [Compound 259, 4-chloro-N-[3-methyl-5-(phenylethynyl)pyridin-2-yl]-1-{[(1S,2S,4R)-7-oxabicyclo[2.2.1]heptan-2-yl]methyl}-1H-pyrazole-5-carboxamide and 4-chloro-N-[3-methyl-5-(phenylethynyl)pyridin-2-yl]-1-{[(1R,2R,4S)-7-oxabicyclo[2.2.1]heptan-2-yl]methyl}-1H-pyrazole-5-carboxamide] gave an IC50 of 430 nM. Same read-out and setting: the same measure for `CC(=O)N1CCCC(Cn2ncc(Cl)c2C(=O)Nc2ncc(C#Cc3ccc(F)cc3)cc2C)C1` (stereo not drawn) [Compound 248, 1-((1-acetylpiperidin-3-yl)methyl)-4-chloro-N-(5-((4-fluorophenyl)ethynyl)-3-methylpyridin-2-yl)-1H-pyrazole-5-carboxamide]: 390 nM; for `N#CC1CC(n2ncc(Cl)c2C(=O)Nc2c(F)cc(C#Cc3ccccc3)cc2F)C1` (stereo not drawn) [Compound 245, 4-chloro-1-(3-cyanocyclobutyl)-N-(2,6-difluoro-4-(phenylethynyl)phenyl)-1H-pyrazole-5-carboxamide]: 390 nM; for `CC(=O)N1CC2CC(C1)C2Cn1ncc(Cl)c1C(=O)Nc1ncc(C#Cc2ccccc2)cc1C` (stereo not drawn) [Compound 370, 1-((3-acetyl-3-azabicyclo[3.1.1]heptan-6-yl)methyl)-4-chloro-N-(3-methyl-5-(phenylethynyl)pyridin-2-yl)-1H-pyrazole-5-carboxamide]: 980 nM. On the same count and under the same terms, next, `Cc1cc(C#Cc2ccccc2)cnc1NC(=O)c1c(Cl)cnn1[C@H]1C[C@@H]2CN(C(=O)C3CC3)C[C@@H]2C1` [Compound 282, 4-chloro-1-[(3aR,5s,6aS)-2-(cyclopropanecarbonyl)octahydro-cyclopenta[c]pyrrol-5-yl]-N-[3-methyl-5-(phenylethynyl)pyridin-2-yl]-1H-pyrazole-5-carboxamide]: 490 nM; `CC(=O)N1CCC(Cn2ncc(Cl)c2C(=O)Nc2ncc(C#Cc3ccc(F)cc3)cc2C)CC1` [Compound 256, 1-((1-acetylpiperidin-4-yl)methyl)-4-chloro-N-(5-((4-fluorophenyl)ethynyl)-3-methylpyridin-2-yl)-1H-pyrazole-5-carboxamide]: 420 nM; `CC(C)(C)OC(=O)N1CCC(n2ncc(Cl)c2C(=O)Nc2c(F)cc(C#Cc3ccccc3)cc2F)C1` (stereo not drawn) [Compound 297, tert-butyl 3-(4-chloro-5-((2,6-difluoro-4-(phenyethynyl)phenyl)carbamoyl)-1H-pyrazol-1-yl)pyrroldine-1-carboxylate]: 540 nM. Still for that read-out and setting: next, `Cc1cc(C#Cc2ccccc2)cnc1NC(=O)c1c(Cl)cnn1C1CCN(C(=O)C(F)(F)F)CC1` [Compound 268, 4-chloro-N-[3-methyl-5-(2-phenylethynyl)-2-pyridyl]-2-[1-(2,2,2-trifluoroacetyl)-4-piperidyl]pyrazole-3-carboxamide]: 450 nM; `CC(C)(C)OC(=O)N1CCOC(Cn2ncc(Cl)c2C(=O)Nc2ncc(C#Cc3ccccc3)cc2F)C1` (stereo not drawn) [Compound 300, tert-butyl 2-((4-chloro-5-((3-fluoro-5-(phenylethynyl)pyridin-2-yl)carbamoyl)-1H-pyrazol-1-yl)methyl)morpholine-4-carboxylate]: 540 nM.

Staying with this test, now noted: TREK-1 Thallium (Tl+) flux assay; values without footnote *12 are Method 1.
`O=C(Nc1ncc(C#Cc2ccccc2)cc1F)c1c(Cl)cnn1C[C@H]1CCOC1` [Compound 60, (R)-4-chloro-N-(3-fluoro-5-(phenylethynyl)pyridin-2-yl)-1-((tetrahydrofuran-3-yl)methyl)-1H-pyrazole-5-carboxamide] came in with an IC50 of 150 nM. Same read-out and setting: next, `CC(=O)N1CCC(n2ncc(Cl)c2C(=O)Nc2ncc(C#Cc3ccccc3)cc2F)C1` (stereo not drawn) [Compound 121, 1-(1-acetylpyrrolidin-3-yl)-4-chloro-N-(3-fluoro-5-(phenylethynyl)pyridin-2-yl)-1H-pyrazole-5-carboxamide]: 210 nM; `Cc1cc(C#Cc2ccccc2)cnc1NC(=O)c1c(Cl)cnn1C1CCN(C(=O)C(C)C)C1` (stereo not drawn) [Compound 136, 4-chloro-1-(1-isobutyrylpyrrolidin-3-yl)-N-(3-methyl-5-(phenylethynyl)pyridin-2-yl)-1H-pyrazole-5-carboxamide]: 220 nM.

For `CC(=O)N[C@H]1CC[C@H](n2ncc(Cl)c2C(=O)Nc2ncc(C#Cc3ccccc3)cc2C)CC1` [Compound 47, 1-(trans-4-acetamidocyclohexyl)-4-chloro-N-(3-methyl-5-(phenylethynyl)pyridin-2-yl)-1H-pyrazole-5-carboxamide], inhibition was half-maximal at 130 nM (IC50). On the same count and under the same terms, the same measure for `CC(C)C(=O)N1CC[C@@H](Cn2ncc(Cl)c2C(=O)Nc2ncc(C#Cc3ccccc3)cc2F)[C@@H](F)C1` [Compound 146, 4-chloro-1-(((3R,4S)-3-fluoro-1-isobutyrylpiperidin-4-yl)methyl)-N-(3-fluoro-5-(phenylethynyl)pyridin-2-yl)-1H-pyrazole-5-carboxamide]: 230 nM. In turn, `CC(=O)N1CCC(Cn2ncc(Cl)c2C(=O)Nc2ncc(C#Cc3ccccc3)cc2C)C(F)(F)C1` (stereo not drawn) [Compound 98, 1-((1-acetyl-3,3-difluoropiperidin-4-yl)methyl)-4-chloro-N-(3-methyl-5-(phenylethynyl)pyridin-2-yl)-1H-pyrazole-5-carboxamide] showed an IC50 of 180 nM. The same measure, in the same setting: the same measure for `CCC(=O)N1CCC(n2ncc(Cl)c2C(=O)Nc2ncc(C#Cc3ccc(F)cc3)cc2C)CC1` [Compound 66, 4-chloro-N-(5-((4-fluorophenyl)ethynyl)-3-methylpyridin-2-yl)-1-(1-propionylpiperidin-4-yl)-1H-pyrazole-5-carboxamide]: 150 nM; for `CCC(=O)N1CCC(n2ncc(Cl)c2C(=O)Nc2ncc(C#Cc3ccccc3)cc2C)C1` (stereo not drawn) [Compound 106, 4-chloro-N-(3-methyl-5-(phenylethynyl)pyridin-2-yl)-1-(1-propionylpyrrolidin-3-yl)-1H-pyrazole-5-carboxamide]: 190 nM. Compound `Cc1cc(C#Cc2ccccc2)cc(F)c1NC(=O)c1c(Cl)cnn1C1CCOCC1` [Compound 180, 4-chloro-N-(2-fluoro-6-methyl-4-(phenylethynyl)phenyl)-1-(tetrahydro-2H-pyran-4-yl)-1H-pyrazole-5-carboxamide] yielded an IC50 of 280 nM. `Cc1cc(C#Cc2ccccc2)cc(F)c1NC(=O)c1c(Cl)cnn1CC1(C#N)CC1` [Compound 127, 4-chloro-1-((1-cyanocyclopropyl)methyl)-N-(2-fluoro-6-methyl-4-(phenylethynyl)phenyl)-1H-pyrazole-5-carboxamide] returned an IC50 of 220 nM. Regarding `CC(=O)N1CC2(CC(n3ncc(Cl)c3C(=O)Nc3ncc(C#Cc4ccccc4)cc3C)C2)C1` [Compound 173, 1-(2-acetyl-2-azaspiro[3.3]heptan-6-yl)-4-chloro-N-(3-methyl-5-(phenylethynyl)pyridin-2-yl)-1H-pyrazole-5-carboxamide], inhibition was half-maximal at 270 nM (IC50).

The same test, now with this note: read-out: Tl^+ Assay % inhibition at 30 uM (Minus value indicates activation of TREK-1); at 30 uM; CHO-K1 cells stably expressing human TREK-1; minus = activation.
For `O=C(Nc1ncc(C#Cc2cccs2)cc1F)c1nn(CCC2CCN(C(=O)C3COCCO3)CC2)cc1Cl` (stereo not drawn) [Compound 448, 1-(2-(1-(1,4-dioxane-2-carbonyl)piperidin-4-yl)ethyl)-4-chloro-N-(3-fluoro-5-(thiophen-2-ylethynyl)pyridin-2-yl)-1H-pyrazole-3-carboxamide], the inhibition at 30 µM was -106%.

In general, IC50 refers to the midpoint of a concentration-inhibition curve. A high value points to lower potency. One may read the inhibition as the relative decrease from the control value, in per cent.
